# Measurements as given in patent US5026701A, “Morpholine compounds, compositions and use” (Adir et Compagnie, priority 1989, dated 1991).
# Columns and labels:
# mice [1] = assay: Hexobarbital (75 mg/kg i.p.) induced narcosis duration; type: in vivo
# Procedure: This antagonism of barbital-induced narcosis reflects a psycho-awakening effect since no antagonism occurs when narcosis is induced with hexobarbital (75 mg/kg i.p.) (product of Example 2β:+20%; product of Example 1:+26%).
# mice [2] = assay: Hypothermia with apomorphine (16 mg/kg i.p.); type: in vivo; conditions: 30 minutes before apomorphine 16 mg/kg i.p.
# Procedure: The administration of a very strong dose of apomorphine (16 mg/kg i.p.) causes hypothermia of approximately 4° C. by the stimulation of dopaminergic heteroreceptors situated on the noradrenergic neurones. The so-created hypothermia is thus due to the failure of noradrenergic neurotransmission. The facilitating agents administered 30 minutes beforehand counteract this hypothermia.
# mice [3] = assay: Psycho-awakening effect: sodium barbital (270 mg/kg i.p.) induced narcosis duration; type: in vivo; conditions: 30 μmols/kg i.p.
# Procedure: Male mice are administered sodium barbital by the i.p. route at a dose of 270 mg/kg. The duration of the narcosis so induced is compared between control animals and animals treated beforehand by the i.p. route with the compounds examined.
# [4] = tested on: synaptosomal reuptake of noradrenaline (NAD); assay: Synaptosomal reuptake of tritiated noradrenaline in vitro; type: biochemical; conditions: 10^-6 M, synaptosomes, versus control preparation
# Procedure: This effect was examined in the […] by measuring the synaptosomal reuptake of noradrenaline (NAD). For this, a fraction of synaptosomes is placed in the presence of tritiated NAD with or without previous incubation with the compound examined.
# A measurement of the radioactivity in the synaptosomal pellet makes it possible to calculate the quantity of NAD reuptaken naturally by neurone endings. A compound inhibiting the reuptake reduces the radioactivity measured and a percentage inhibition is measured by comparison with a control preparation.
# mice [5] = assay: Cerebral protecting effects: acute global hypoxia (barometric depressurization to 160 mbar), cerebral survival time; type: in vivo; conditions: 30 minutes before hypoxia; for increase in the survival time: male mice
# Procedure: The cerebral survival time taken as the occurrence of the last respiratory gasp is measured in control animals and in animals that have received the compound under examination 30 minutes beforehand by the intraperitoneal route.
# [6] = Lethal dose test with yohimbine (potentiation of yohimbine 30 mg/kg i.p.), percentage mortality; type: in vivo, mice; conditions: mouse, in vivo; yohimbine lethality potentiation, mice; read-out: relationship between the mean effective p.o. and i.p. doses (oral bioavailability)
# Procedure: (§1) Male mice are administered yohimbine (α2 antagonist) by the intraperitoneal route at a dose of 30 mg/kg, a non-lethal dose which only causes the occurrence of hyperexcitability symptoms or convulsions. Any compound that facilitates noradrenergic neurotransmission potentiates the releasing effect of the yohimbine and brings about the death of the animals.
# (§2) A percentage mortality is thus measured for each group of animals treated 30 minutes beforehand i.p. or 60 minutes beforehand p.o. with the compound examined.
# mice [7] = assay: as above; type: in vivo; conditions: 9 μmols/kg i.p., 30 minutes before yohimbine 30 mg/kg i.p.
# Procedure: as §1, §2
# mice [8] = assay: Cerebral protecting effects: acute global hypoxia (barometric depressurization to 160 mbar), cerebral survival time; type: in vivo; conditions: 60 minutes before hypoxia
SMILES,inhibiting effect vis-a-vis hypothermia (mice [2]; 3 μmols/kg),inhibiting effect vis-a-vis hypothermia (mice [2]; 9 μmols/kg),change in duration of narcosis with barbital (mice [3]),inhibition of the reuptake of NAD [4],increase in the survival time (mice [5]; 3 μmols/kg i.p.),increase in the survival time (mice [5]; 9 μmols/kg i.p.),increase in the survival time (mice [5]; 30 μmols/kg i.p.),increase in the survival time (mice [5]; 90 μmols/kg i.p.),ratio of mean effective p.o. to i.p. dose [6],other results
"Fc1cc2c(c(OCC3CNCCO3)c1)NCCC2 (racemic) [Example 1, R,S-6-fluoro-8-(2-morpholinylmethoxy)-1,2,3,4-tetrahydroquinoline]",-27%,-46%,-36%,,,,,,,change in duration of narcosis induced with hexobarbital (mice [1]): +26%
"Fc1ccc(OCC2CNCCO2)c2c1CCCN2 (racemic) [Example 2, R,S-5-fluoro-8-(2-morpholinylmethoxy)-1,2,3,4-tetrahydroquinoline]",,-29%,,,,,,,,
"c1cc2c(c(OCC3CNCCO3)c1)NCCC2 (racemic) [reference product, R,S-8-[(2-morpholinyl)methoxy]-1,2,3,4-tetrahydroquinoline, reference compound]",no effect,+0.5%,-20%,33.6%,+5%,+17%,+42%,+87%,4.25,"minimal effective dose (mice [5]; Mus musculus, ip, read-out: dose from which hypoxia is significantly counteracted (protecting effect obtained)): 9 µmol/kg; mortality (mice [7]): +20%; increase in the survival time (mice [8]; 40 μmols/kg orally): 31%"
"CS(=O)(=O)O.Fc1cc2c(c(OC[C@H]3CNCCO3)c1)NCCC2 [Example 1α, R-6-fluoro-8-(2-morpholinylmethoxy)-1,2,3,4-tetrahydroquinoline monomethanesulphonate]",,,,,,+37%,+55%,+114%,3.16,increase in the survival time (mice [8]; 9 μmols/kg orally): 37%
"Fc1cc2c(c(OC[C@@H]3CNCCO3)c1)NCCC2 [Example 1β, S-6-fluoro-8-(2-morpholinylmethoxy)-1,2,3,4-tetrahydroquinoline monomethanesulphonate]",,,,-55.4%,+21%,+42%,+62%,+108%,,
"Fc1ccc(OC[C@H]2CNCCO2)c2c1CCCN2 [Example 2α, R-5-fluoro-8-(2-morpholinylmethoxy)-1,2,3,4-tetrahydroquinoline monomethanesulphonate]",,,,,,,,,1.77,
"Fc1ccc(OC[C@@H]2CNCCO2)c2c1CCCN2 [Example 2β, S-5-fluoro-8-(2-morpholinylmethoxy)-1,2,3,4-tetrahydroquinoline monomethanesulphonate]",-16%,-21%,40%,-58.9%,21%,,,,,change in duration of narcosis induced with hexobarbital (mice [1]): +20%
